Target: EN PA (Influenza A virus, UniProt P15659)
Assay: EN PA FRET Inhibition Assay
Assay type: biochemical
Settings: read-out: Potency

`CC(C)(C)c1ccc(-n2cc(O)c(=O)c(C(=O)O)n2)cc1` [Compound 3, 1-(4-tert-butylphenyl)-5-hydroxy-4-oxo-1,4-dihydropyridazine-3-carboxylic acid] was tested, and the IC50 was 0.1 to 1 µM.

`COc1cccc(-n2cc(O)c(=O)c(C(=O)O)n2)c1` [Compound 5] showed an IC50 of 0.1 to 1 µM.

For `CC(C)c1ccccc1-n1cc(O)c(=O)c(C(=O)O)n1` [Compound 8], the IC50 was ≥ 1 µM.

In the case of `Cc1cccc(C)c1-n1cc(O)c(=O)c(C(=O)O)n1` [Compound 12], the IC50 is reported as 0.1 to 1 µM.

`COc1ccc(-c2ccccc2)cc1-n1cc(O)c(=O)c(C(=O)O)n1` [Compound 13] gave an IC50 of 0.1 to 1 µM.

For `O=C(O)c1nn(-c2ccccc2OC(F)F)cc(O)c1=O` [Compound 14], the IC50 was ≥ 1 µM.

In the case of `Cc1ccc2cccc(-n3cc(O)c(=O)c(C(=O)O)n3)c2n1` [Compound 15], the IC50 is reported as 0.1 to 1 µM.

`CC(C)(C)c1ccccc1-n1cc(O)c(=O)c(C(=O)O)n1` [Compound 16] was tested, and the IC50 was 0.1 to 1 µM.

`CCCCNS(=O)(=O)c1cccc(-n2cc(O)c(=O)c(C(=O)O)n2)c1` [Compound 22] gave an IC50 of 0.1 to 1 µM.

Work on `CCOc1ccccc1-n1cc(O)c(=O)c(C(=O)O)n1` [Compound 23] yielded an IC50 of 0.1 to 1 µM.

For `CCCCOc1ccc(-n2cc(O)c(=O)c(C(=O)O)n2)cc1` [Compound 25], the IC50 was ≥ 1 µM.

`COc1cc(OC)cc(-n2cc(O)c(=O)c(C(=O)O)n2)c1` [Compound 26] gave an IC50 of 0.1 to 1 µM.

`O=C(O)c1nn(-c2ccc(C(F)(F)F)cc2)cc(O)c1=O` [Compound 27] gave an IC50 of 0.1 to 1 µM.

`O=C(O)c1nn(-c2ccc(N3CCCCC3)cc2)cc(O)c1=O` [Compound 28] was tested, and the IC50 was ≥ 1 µM.

`O=C(O)c1nn(-c2ccccc2CCO)cc(O)c1=O` [Compound 29] gave an IC50 of 0.1 to 1 µM.

`O=C(O)c1nn(-c2cccc(OC(F)(F)F)c2)cc(O)c1=O` [Compound 30] was tested, and the IC50 was ≥ 1 µM.

Work on `CS(=O)(=O)c1ccc(-n2cc(O)c(=O)c(C(=O)O)n2)cc1` [Compound 31] yielded an IC50 of 0.1 to 1 µM.

For `O=C(O)c1nn(-c2ccc3c(c2)OCCO3)cc(O)c1=O` [Compound 32], the IC50 was 0.1 to 1 µM.

Compound `O=C(O)c1nn(-c2ccc3cn[nH]c3c2)cc(O)c1=O` [Compound 33] has an IC50 of 0.1 to 1 µM.

With `CCc1ccccc1-c1ccccc1-n1cc(O)c(=O)c(C(=O)O)n1` [Compound 34] the IC50 was 0.1 to 1 µM.

Work on `N#Cc1ccc(-c2ccccc2-n2cc(O)c(=O)c(C(=O)O)n2)cc1` [Compound 36] yielded an IC50 of 0.1 to 1 µM.

`CC(C)Cc1ccc(-c2ccccc2-n2cc(O)c(=O)c(C(=O)O)n2)cc1` [Compound 37] was tested, and the IC50 was 0.1 to 1 µM.

In the case of `Cc1ccccc1-c1ccccc1-n1cc(O)c(=O)c(C(=O)O)n1` [Compound 38], the IC50 is reported as 0.1 to 1 µM.

With `CC(C)c1ccccc1-c1ccccc1-n1cc(O)c(=O)c(C(=O)O)n1` [Compound 39] the IC50 was 0.1 to 1 µM.

With `O=C(O)c1nn(-c2ccccc2-c2ccccc2OC(F)(F)F)cc(O)c1=O` [Compound 40] the IC50 was 0.1 to 1 µM.

`O=C(O)c1nn(-c2ccccc2N2CCOCC2)cc(O)c1=O` [Compound 41] gave an IC50 of 0.1 to 1 µM.

`O=C(O)c1nn(-c2ccc3[nH]ncc3c2)cc(O)c1=O` [Compound 42] showed an IC50 of 0.1 to 1 µM.

`O=C(O)c1nn(-c2ccc(Oc3ccccc3)cc2)cc(O)c1=O` [Compound 43] was tested, and the IC50 was 0.1 to 1 µM.

With `CCOC(=O)c1nn(-c2ccccc2S(=O)(=O)c2ccccc2)cc(O)c1=O` [Compound 44] the IC50 was ≥ 1 µM.

`O=C(O)c1nn(-c2ccccc2N2CCCC2)cc(O)c1=O` [Compound 200, 5-hydroxy-4-oxo-1-(2-(pyrrolidin-1-yl)phenyl)-1,4-dihydropyridazine-3-carboxylic acid] gave an IC50 of 0.1 to 1 µM.

`O=C(O)c1nn(-c2cc(C(F)(F)F)ccc2N2CCCC2)cc(O)c1=O` [Compound 201] gave an IC50 of 0.1 to 1 µM.

Compound `CC1CCN(c2ccccc2-n2cc(O)c(=O)c(C(=O)O)n2)CC1` [Compound 202] has an IC50 of 0.1 to 1 µM.

In the case of `CN1CCN(c2ccccc2-n2cc(O)c(=O)c(C(=O)O)n2)CC1` [Compound 204], the IC50 is reported as ≥ 1 µM.

In the case of `CCN1CCN(c2ccccc2-n2cc(O)c(=O)c(C(=O)O)n2)CC1` [Compound 205], the IC50 is reported as ≥ 1 µM.

For `CC(C)(C)C1CCN(c2ccccc2-n2cc(O)c(=O)c(C(=O)O)n2)CC1` [Compound 208], the IC50 was 0.1 to 1 µM.

For `CC1(C)CCCN(c2ccccc2-n2cc(O)c(=O)c(C(=O)O)n2)C1` [Compound 209], the IC50 was 0.1 to 1 µM.

Work on `Cc1ccc(C)c(-c2ccccc2-n2cc(O)c(=O)c(C(=O)O)n2)c1` [Compound 300, 1-(2′,5′-dimethylbiphenyl-2-yl)-5-hydroxy-4-oxo-1,4-dihydropyidazine-3-carboxylic acid] yielded an IC50 of 0.1 to 1 µM.

In the case of `Cc1cc(C)cc(-c2ccccc2-n2cc(O)c(=O)c(C(=O)O)n2)c1` [Compound 301], the IC50 is reported as 0.1 to 1 µM.

`CC(C)(C)c1ccc(-c2ccccc2-n2cc(O)c(=O)c(C(=O)O)n2)cc1` [Compound 302] was tested, and the IC50 was 0.1 to 1 µM.

`Cc1ccc(-c2ccccc2-n2cc(O)c(=O)c(C(=O)O)n2)cc1` [Compound 303] gave an IC50 of 0.1 to 1 µM.

With `CC(C)(C)OC(=O)N1CCC(c2ccccc2-n2cc(O)c(=O)c(C(=O)O)n2)CC1` [Compound 304] the IC50 was ≥ 1 µM.

`Cc1cc(F)ccc1-c1ccccc1-n1cc(O)c(=O)c(C(=O)O)n1` [Compound 305] was tested, and the IC50 was 0.1 to 1 µM.

`O=C(O)c1nn(-c2ccccc2-c2ccc(F)cc2)cc(O)c1=O` [Compound 306] was tested, and the IC50 was 0.1 to 1 µM.

Compound `O=C(O)c1nn(-c2ccccc2-c2ccc(C(F)(F)F)cc2)cc(O)c1=O` [Compound 307] has an IC50 of 0.1 to 1 µM.

With `O=C(O)c1nn(-c2ccccc2C2CCCCC2)cc(O)c1=O` [Compound 308] the IC50 was 0.1 to 1 µM.

For `Cc1cccc(-c2ccccc2-n2cc(O)c(=O)c(C(=O)O)n2)c1C` [Compound 309], the IC50 was ≥ 1 µM.

`CC(C)Oc1ccccc1-c1ccccc1-n1cc(O)c(=O)c(C(=O)O)n1` [Compound 310] showed an IC50 of 0.1 to 1 µM.

For `O=C(O)c1nn(-c2ccccc2-c2ccccc2Oc2ccccc2)cc(O)c1=O` [Compound 311], the IC50 was < 0.1 µM.

With `O=C(O)c1nn(-c2ccccc2C2CCNCC2)cc(O)c1=O` [Compound 312] the IC50 was ≥ 1 µM.

For `O=C(O)c1nn(-c2ccccc2-c2ccc3cc[nH]c3c2)cc(O)c1=O` [Compound 313], the IC50 was 0.1 to 1 µM.

`COc1ccccc1-c1ccccc1-n1cc(O)c(=O)c(C(=O)O)n1` [Compound 315] was tested, and the IC50 was 0.1 to 1 µM.

With `O=C(O)c1nn(-c2ccccc2-c2cccc3c2oc2ccccc23)cc(O)c1=O` [Compound 316] the IC50 was 0.1 to 1 µM.

For `O=C(O)c1nn(-c2ccccc2-c2ccccc2OC2CCCCC2)cc(O)c1=O` [Compound 317], the IC50 was < 0.1 µM.

In the case of `COc1cccc(-c2ccccc2-n2cc(O)c(=O)c(C(=O)O)n2)c1` [Compound 318], the IC50 is reported as 0.1 to 1 µM.

For `COc1ccc(Cl)c(-c2ccccc2-n2cc(O)c(=O)c(C(=O)O)n2)c1` [Compound 322], the IC50 was 0.1 to 1 µM.

Work on `COc1cc(Cl)cc(-c2ccccc2-n2cc(O)c(=O)c(C(=O)O)n2)c1` [Compound 323] yielded an IC50 of 0.1 to 1 µM.

`Cn1ccc2ccc(-c3ccccc3-n3cc(O)c(=O)c(C(=O)O)n3)cc21` [Compound 324] showed an IC50 of 0.1 to 1 µM.

In the case of `CC(C)COc1ccccc1-c1ccccc1-n1cc(O)c(=O)c(C(=O)O)n1` [Compound 325], the IC50 is reported as < 0.1 µM.

`COc1ccccc1CCn1cc(O)c(=O)c(C(=O)O)n1` [Compound 413] was tested, and the IC50 was < 0.1 µM.

`COc1cccc(CCn2cc(O)c(=O)c(C(=O)O)n2)c1` [Compound 414] was tested, and the IC50 was < 0.1 µM.

Compound `COc1ccc(CCn2cc(O)c(=O)c(C(=O)O)n2)cc1` [Compound 415] has an IC50 of 0.1 to 1 µM.

`COc1ccc(CCn2cc(O)c(=O)c(C(=O)O)n2)cc1OC` [Compound 417] gave an IC50 of 0.1 to 1 µM.

`O=C(O)c1nn(C2CCc3ccccc3C2=O)cc(O)c1=O` (stereo not drawn) [Compound 418] was tested, and the IC50 was 0.1 to 1 µM.

With `O=C(O)c1nn(CC2(c3cc(C(F)(F)F)cc(C(F)(F)F)c3)CCCC2)cc(O)c1=O` [Compound 419] the IC50 was < 0.1 µM.

In the case of `CCOC(=O)c1nn(CC2(c3cc(C(F)(F)F)cc(C(F)(F)F)c3)CCCC2)cc(O)c1=O` [Compound 420], the IC50 is reported as 0.1 to 1 µM.

Compound `Cc1cn(C2(Cn3cc(O)c(=O)c(C(=O)O)n3)CCCC2)c2ncccc12` [Compound 425] has an IC50 of 0.1 to 1 µM.

In the case of `O=C(NC1CC1)c1nn(CC2(c3cc(C(F)(F)F)cc(C(F)(F)F)c3)CCCC2)cc(O)c1=O` [Compound 508], the IC50 is reported as 0.1 to 1 µM.

`CNC(=O)c1nn(-c2ccccc2-c2ccccc2OC(F)(F)F)cc(O)c1=O` [Compound 520] was tested, and the IC50 was ≥ 1 µM.

`CNC(=O)c1nn(-c2ccccc2-c2ccc3cc[nH]c3c2)cc(O)c1=O` [Compound 521] was tested, and the IC50 was ≥ 1 µM.

With `CNC(=O)c1nn(-c2ccccc2-c2cc(C)ccc2OC(C)C)cc(O)c1=O` [Compound 522] the IC50 was 0.1 to 1 µM.

`CNC(=O)c1nn(-c2ccccc2N2CCN(C)CC2)cc(O)c1=O` [Compound 600, 1,4-dihydro-5-hydroxy-N-methyl-1-(2-(4-methylpiperazin-1-yl)phenyl)-4-oxopyridazine-3-carboxamide] was tested, and the IC50 was ≥ 1 µM.

For `CNC(=O)c1nn(-c2ccc3c(c2)OCCO3)cc(O)c1=O` [Compound 601, 1,4-dihydro-1-(2,3-dihydrobenzo[b][1,4]dioxin-6-yl)-5-hydroxy-N-methyl-4-oxopyridazine-3-carboxamide], the IC50 was ≥ 1 µM.

With `CNC(=O)c1nn(CCc2cccc(C(F)(F)F)c2)cc(O)c1=O` [Compound 608] the IC50 was ≥ 1 µM.

`CCN1CCN(c2ccccc2-n2cc(O)c(=O)c(C(=O)NC)n2)CC1` [Compound 615] was tested, and the IC50 was ≥ 1 µM.

`CNC(=O)c1nn(-c2ccccc2N2CCCC(C)(C)C2)cc(O)c1=O` [Compound 616] was tested, and the IC50 was ≥ 1 µM.

With `NC(=O)c1nn(-c2ccccc2S(=O)(=O)c2ccccc2)cc(O)c1=O` [Compound 617] the IC50 was ≥ 1 µM.

For `CNC(=O)c1nn(-c2ccccc2-c2ccc3ccn(C)c3c2)cc(O)c1=O` [Compound 618], the IC50 was ≥ 1 µM.

For `CNC(=O)c1nn(-c2ccccc2-c2ccc3c(ccn3C)c2)cc(O)c1=O` [Compound 620], the IC50 was ≥ 1 µM.

`CNC(=O)c1nn(CC2(c3ccccc3)CCCC2)cc(O)c1=O` [Compound 627] showed an IC50 of 0.1 to 1 µM.

In the case of `CNC(=O)c1nn(-c2ccccc2N2CCCc3ccccc32)cc(O)c1=O` [Compound 628], the IC50 is reported as ≥ 1 µM.

`CNC(=O)c1nn(-c2ccccc2-c2cc(Cl)cc(OC)c2)cc(O)c1=O` [Compound 629] was tested, and the IC50 was ≥ 1 µM.

`CNC(=O)c1nn(-c2ccccc2-c2ccccc2OCC(C)C)cc(O)c1=O` [Compound 630] showed an IC50 of 0.1 to 1 µM.

`CNC(=O)c1nn(-c2ccccc2N2CCc3ccccc32)cc(O)c1=O` [Compound 632] was tested, and the IC50 was ≥ 1 µM.

In the case of `CCOc1cc(C)cc(-c2ccccc2-n2cc(O)c(=O)c(C(=O)NC)n2)c1` [Compound 633], the IC50 is reported as ≥ 1 µM.

— US10364226B2, “Pyridazinone compounds and uses thereof” (priority 2013, dated 2019)
